# Activity calls are given as the source filed them.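 How the source made its calls: active means normalized viability below 40% relative to DMSO and staurosporine controls, called cytotoxic; inactive means the rest.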
# System: L1210 murine leukemia viability, fluorescein diacetate flow cytometry, 48 h
# Assay: viability of murine L1210 leukemia line – cell-based, cytotoxicity control for T cell immune modulator project (AID 504874)
# Settings: at 20 µM; active compounds read low
row,SMILES,viability
1,Cc1cc(Cl)c(OCCCSc2nc(C)cc(=O)[nH]2)c(Br)c1,107% (inactive)
2,COc1ccccc1NS(=O)(=O)c1cc(NC(=O)CNC(=O)c2cc(C)cc(C)c2)ccc1C,61.6% (inactive)
3,CCOCC(=O)Nc1ccc(S(=O)(=O)N2CCC(c3nc4ccccc4[nH]3)CC2)cc1,106% (inactive)
4,Cc1ccccc1C(=O)N1CCC(C(=O)Nc2ccc(C)c(S(=O)(=O)N3CCCCC3)c2)CC1,15.6%
5,COc1cccc(NC(=O)Nc2ccc3nc(C)c(C)nc3c2)c1,82.2% (inactive)
6,COc1ccc(N2CC(C(=O)NC(C)C(=O)NCc3ccccc3OC)CC2=O)cc1 (stereo not drawn),104% (inactive)
7,O=C(CC1=NCCNC(c2ccccc2)C1)c1ccccc1O (stereo not drawn),115% (inactive)
8,Cc1ccc(S(=O)(=O)N2CCN(C(=O)CNC(=O)c3ccc(Cl)cc3)CC2)cc1,96.1% (inactive)
9,COc1ccc(Nc2ccccc2N)cc1,90.2% (inactive)
10,O=C(CS(=O)(=O)Cc1ccccc1)N1CCc2ccccc21,102% (inactive)
11,Cc1cccc(NC(=O)C2CCN(S(=O)(=O)c3c(C)[nH]c(=O)[nH]c3=O)CC2)c1,110% (inactive)
12,Cc1cc(C)n(C(=O)c2sc3cc(F)ccc3c2Cl)n1,107% (inactive)
13,CCOc1ccc(CCNC(=O)CCS(=O)(=O)c2ccc(C)cc2)cc1OCC,90.1% (inactive)
14,COc1ccc(S(=O)(=O)N2CCCC2C(=O)Nc2ccc(C(C)=O)cc2)cc1 (stereo not drawn),112% (inactive)
15,COC(=O)c1ccccc1NC(=O)C1CCN(C(=O)c2cc(OC)cc(OC)c2)CC1,108% (inactive)
16,c1ccc(COc2ccc(OCCN3CCCCC3)cc2)cc1,57.1% (inactive)
17,COCc1c(C(=O)Nc2cccc(S(=O)(=O)N3CCCCC3)c2)oc2ccccc12,78.5% (inactive)
18,O=C(NCCC1=CCCCC1)C(=O)NCC(c1ccco1)N1CCN(c2ccccc2F)CC1 (stereo not drawn),109% (inactive)
19,O=C(NCC1CCCCC1)c1ccc(Cl)c(S(=O)(=O)N2CCOCC2)c1,114% (inactive)
20,O=C(O)C1CCC(Cn2c(SCc3cc(=O)n4cc(Cl)ccc4n3)nc3ccsc3c2=O)CC1 (stereo not drawn),111% (inactive)
21,COc1ccc(S(=O)(=O)N2CCCCC2)cc1NC(=O)c1cnc(C)cn1,105% (inactive)
22,COc1ccccc1CNC(=O)COc1ccc(C)cc1,99.1% (inactive)
23,NC(=O)C1CCN(c2nc(-c3cc4ccccc4o3)cs2)CC1,109% (inactive)
24,CN(C)S(=O)(=O)c1ccc(C(=O)NCCc2ccco2)cc1,108% (inactive)
25,COc1ccc(/C=C2\SC(=S)N(CCC(=O)N3CCOCC3)C2=O)cc1,90.8% (inactive)
26,CC(C)(C)NC(=O)COc1ccc(CNCc2cccnc2)cc1,108% (inactive)

row,SMILES,viability
1,CN1CCN(S(=O)(=O)c2ccc(C(=O)Nc3ccccc3)cc2)CC1,108% (inactive)
2,Cc1ccc(OCCOC(=O)c2cc(S(=O)(=O)N3CCCCC3)ccc2N2CCOCC2)cc1,92.3% (inactive)
3,CN(CC(=O)Nc1cc(S(=O)(=O)N2CCCC2)ccc1Cl)Cc1ccc2c(c1)OCO2,92.1% (inactive)
4,CN1CCN(S(=O)(=O)c2cccc(C(=O)Nc3cc(C(F)(F)F)ccc3N3CCCCC3)c2)CC1,102% (inactive)
5,CCOC(=O)C1CCCN(S(=O)(=O)c2ccc(F)c(C(=O)Nc3ccc(F)c(F)c3)c2)C1 (stereo not drawn),91.6% (inactive)
6,CC(=O)Nc1ccc(S(=O)(=O)NC2CCSc3ccccc32)cc1 (stereo not drawn),110% (inactive)
7,Cc1ccc(C(=O)NCCCN2CCOCC2)c(C)c1,108% (inactive)
8,CCN(CC)S(=O)(=O)c1ccc(Cl)c(NC(=O)COC(=O)C2CCCCC2)c1,102% (inactive)
9,Cc1ccc(O)c(CCc2ccccc2)n1,116% (inactive)
10,Cc1ccc(NC(=O)COC(=O)CCc2c[nH]c3ccccc23)c(C)c1,122% (inactive)
11,CCOC(=O)c1ccc(S(=O)(=O)N2CCN(C3CCCC3)CC2)cc1,102% (inactive)
12,Cc1ccccc1C(=O)NCC(=O)N1CCN(C/C=C/c2ccccc2)CC1,83.1% (inactive)
13,Cc1ccc(N2CC(C(=O)NC3=NCCS3)CC2=O)cc1 (stereo not drawn),102% (inactive)
14,COc1ccc(NC(=O)CSCC(=O)Nc2cccc(S(=O)(=O)N3CCCCCC3)c2)cc1,68.7% (inactive)
15,CCOc1ccc(-c2nc(N)ncc2-c2ccccc2)c(O)c1,105% (inactive)
16,O=C(OCCOc1cccc(Cl)c1)c1ccc(F)c(S(=O)(=O)N2CCOCC2)c1,109% (inactive)
17,CC(=O)c1ccc(-c2csc(N3CCC(C(N)=O)CC3)n2)cc1,70.7% (inactive)
18,O=C(NCCN1CCN(c2ccccc2)CC1)c1cccc(Br)c1,96.4% (inactive)
19,O=C(Cn1cc(C(F)(F)F)cc(Cl)c1=O)NCCc1ccc(Cl)cc1Cl,103% (inactive)
20,Cc1sc2ncnc(NCC(C)(C)N3CCOCC3)c2c1C,-4.46%
21,O=C(COC(=O)C12CC3CC(CC(Br)(C3)C1)C2)Nc1cccc(S(=O)(=O)N2CCOCC2)c1,99.3% (inactive)
22,CCOC(=O)c1c(C=O)c2ccccc2n1CC,104% (inactive)
23,COc1ccc(C2=Nc3cc(C)ccc3OC2)cc1,108% (inactive)
24,O=C(NCc1cccnc1)C(=O)NCC(c1ccco1)N1CCN(c2ccccc2)CC1 (stereo not drawn),106% (inactive)
25,CCCCOc1ccc(C(=O)NCC(=O)N2CCN(C(=O)c3ccco3)CC2)cc1,107% (inactive)
26,CC1CCCCC1NC(=O)COC(=O)c1ccc2ncsc2c1 (stereo not drawn),92.6% (inactive)

row,SMILES,viability
1,CC(Sc1nc2ccccc2[nH]1)C(=O)NC1CCCCC1C (stereo not drawn),98.6% (inactive)
2,CCN(CC)CCNC(=O)CCCNC(=O)Cn1cnc2sc(C)c(C)c2c1=O,104% (inactive)
3,COc1ccc([N+](=O)[O-])cc1NC(=O)c1ccc(N(Cc2ccccc2C)S(C)(=O)=O)cc1,111% (inactive)
4,O=C(NNS(=O)(=O)c1ccc2ccccc2c1)c1cccs1,110% (inactive)
5,CCC(C(=O)Nc1ccccc1)c1ccccc1 (stereo not drawn),98.3% (inactive)
6,CCCCn1nc(C(=O)N2CCN(S(=O)(=O)c3ccccc3)CC2)c2ccccc2c1=O,100% (inactive)
7,CCC1(C)NC(=O)N(CC(=O)N2N=C(c3ccccc3)CC2c2ccc(OC)cc2)C1=O (stereo not drawn),103% (inactive)
8,Cn1c(CNC(=O)CNC(=O)c2ccc(F)cc2)cc(=O)n(C)c1=O,100% (inactive)
9,CCOC(=O)c1ccc(NC(=O)CN2C(=O)NC3(CCCCCCC3)C2=O)cc1,98.6% (inactive)
10,CCOC(=O)N1CCN(C(=O)c2ccc(CS(=O)Cc3ccc(C)cc3)o2)CC1 (stereo not drawn),107% (inactive)
11,CCCc1nnc(NC(=O)c2ccc(S(=O)(=O)N(C)c3ccccc3OC)cc2)s1,59.6% (inactive)
12,COc1ccc(C(O)c2coc3ccc(O)c(CN(C)C)c23)cc1 (stereo not drawn),87.4% (inactive)
13,Cc1ccc(S(=O)(=O)N2CCN(S(=O)(=O)N(C)C)CC2)c(C)c1,105% (inactive)
14,COc1ccc(NC(=O)CC2C(=O)N(Cc3ccccc3)C(=S)N2CCN2CCOCC2)cc1 (stereo not drawn),98.8% (inactive)
15,Cc1ccc(Cn2c([N+](=O)[O-])cnc2C)cc1,104% (inactive)
16,COCCCN1CCc2[nH]c(=S)[nH]c(=O)c2C1,102% (inactive)
17,COc1ccc(CNC(=O)c2cccnc2SC)cc1OC,101% (inactive)
18,O=C1CC(c2nc3ccccc3[nH]2)CN1Cc1ccccc1 (stereo not drawn),103% (inactive)
19,Cc1cc(=O)oc2c3c(cc(OCC(=O)NCc4ccncc4)c12)OC(C)(C)CC3,110% (inactive)
20,O=C(CCC(=O)N1CCOCC1)NCc1cccc(C(F)(F)F)c1,110% (inactive)
21,CCCNC(=O)c1nc2ncc(Br)cn2n1,103% (inactive)
22,Cc1ncc([N+](=O)[O-])n1Cc1cccc(F)c1,104% (inactive)
23,CCN(CC)C(=O)N1CCN(S(=O)(=O)c2ccc(C)cc2)CC1,96.8% (inactive)
24,CN(C)S(=O)(=O)c1cccc(-n2sc3ccccc3c2=O)c1,35.5%
25,O=C(c1ccc(N2C(=O)C3CC=C(Cl)CC3C2=O)cc1)N1CCCCC1 (stereo not drawn),107% (inactive)
26,CCOC(=O)c1c(N2C(=O)CC(Sc3ccccc3C(=O)O)C2=O)sc2c1CCCC2 (stereo not drawn),98% (inactive)

# Source: PubChem BioAssay AID504874 (NMMLSC, 2011)
